Data published in US9751887B2, “Imidazo[1,2-b]pyridazine derivatives as kinase inhibitors” (Daiichi Sankyo Company, Limited, priority 2012, dated 2017).

How the values were obtained:
ROS1 [1] = target: T1, ROS1 (Homo sapiens, UniProt P08922); experiment: ROS1 autophosphorylation inhibitory activity evaluation (ADP-Glo); type: biochemical; conditions: 200 nM inactive ROS1, ATP 1 mM, 25° C. 1.5 hours, ADP generated, four separate measurements
T1 construct: purchased Carna Biosciences 08-163
Description: Fifty mM HEPES (pH 7.5), 10 mM MgCl2, 0.01% Brij-58, and 2.5 mM DTT were mixed to prepare an enzymatic reaction solution. […] ATP (final concentration: 1 mM) was further added thereto at a concentration of 2.5 μL/well. The resulting plate was left standing at 25° C. for 1.5 hours to cause enzymatic reaction. After the completion of enzymatic reaction, ADP-Glo Reagent-1 (Promega, V9103) was added thereto at a concentration of 2.5 μL/well, and the plate was left standing at room temperature for 60 minutes. Then, ADP-Glo Reagent-2 (Promega) was added thereto at a concentration of 5 μL/well, and the plate was left standing at room temperature for 60 minutes. The amount of ADP generated by the autophosphorylation of ROS1 was measured using EnVision (PerkinElmer Japan). The amount of ADP generated in four separate measurements was defined as the autophosphorylation intensity of ROS1. IC50 values were calculated by curve fitting using GraphPad Prism version 4 (GraphPad software).

ROS1 [2] = target: T1, ROS1; experiment: ROS1 kinase inhibitory activity evaluation (mobility shift, EZ Reader II); type: biochemical; conditions: ROS1 25 pg/μL, FL-Peptide 22 substrate, three separate measurements
Description: Next, a substrate reaction solution was prepared. […] Then, the reaction stop solution was added thereto at a concentration of 40 μL/well. Substrate phosphorylation intensity was measured using EZ Reader II (Caliper Life Sciences).

[3] = tested on: HCC78 cells having ROS1 fusion gene; experiment: HCC78 cell growth assay (CellTiter-Glo); type: cell-based; conditions: Homo sapiens, HCC78, 72 h, 72 hours culture, 2% FBS medium, luminescence, four separate measurements; read-out: growth inhibitory effect on HCC78 cells having ROS1 fusion gene IC50
Description: Each compound of the present invention was assayed for its cell growth inhibitory effect using HCC78 cells having ROS1 fusion gene.
The suspension was dispensed at a concentration of 100 μL/well to a 96-well culture plate for cell culture (SUMITOMO BAKELITE, Cat No MS-0096S) (hereinafter, referred to as an assay plate). […] In this context, the final concentration of DMSO was set to 0.4%. Then, the cells were cultured for 72 hours in a CO2 incubator.
CellTiter-Glo Luminescent Cell Viability Assay reagent (Promega, Cat No G7571) was dispensed at a concentration of 100 μL/well to the assay plate. The contents in each well were reacted at room temperature for 10 minutes while stirred using a plate mixer. […] The luminescence intensity of each well was measured using EnVision. The luminescence intensity of each well obtained in four separate measurements was defined as the number of cells. IC50 values were calculated by curve fitting using GraphPad Prism version 4.

T1 sequence (P08922 28-2347): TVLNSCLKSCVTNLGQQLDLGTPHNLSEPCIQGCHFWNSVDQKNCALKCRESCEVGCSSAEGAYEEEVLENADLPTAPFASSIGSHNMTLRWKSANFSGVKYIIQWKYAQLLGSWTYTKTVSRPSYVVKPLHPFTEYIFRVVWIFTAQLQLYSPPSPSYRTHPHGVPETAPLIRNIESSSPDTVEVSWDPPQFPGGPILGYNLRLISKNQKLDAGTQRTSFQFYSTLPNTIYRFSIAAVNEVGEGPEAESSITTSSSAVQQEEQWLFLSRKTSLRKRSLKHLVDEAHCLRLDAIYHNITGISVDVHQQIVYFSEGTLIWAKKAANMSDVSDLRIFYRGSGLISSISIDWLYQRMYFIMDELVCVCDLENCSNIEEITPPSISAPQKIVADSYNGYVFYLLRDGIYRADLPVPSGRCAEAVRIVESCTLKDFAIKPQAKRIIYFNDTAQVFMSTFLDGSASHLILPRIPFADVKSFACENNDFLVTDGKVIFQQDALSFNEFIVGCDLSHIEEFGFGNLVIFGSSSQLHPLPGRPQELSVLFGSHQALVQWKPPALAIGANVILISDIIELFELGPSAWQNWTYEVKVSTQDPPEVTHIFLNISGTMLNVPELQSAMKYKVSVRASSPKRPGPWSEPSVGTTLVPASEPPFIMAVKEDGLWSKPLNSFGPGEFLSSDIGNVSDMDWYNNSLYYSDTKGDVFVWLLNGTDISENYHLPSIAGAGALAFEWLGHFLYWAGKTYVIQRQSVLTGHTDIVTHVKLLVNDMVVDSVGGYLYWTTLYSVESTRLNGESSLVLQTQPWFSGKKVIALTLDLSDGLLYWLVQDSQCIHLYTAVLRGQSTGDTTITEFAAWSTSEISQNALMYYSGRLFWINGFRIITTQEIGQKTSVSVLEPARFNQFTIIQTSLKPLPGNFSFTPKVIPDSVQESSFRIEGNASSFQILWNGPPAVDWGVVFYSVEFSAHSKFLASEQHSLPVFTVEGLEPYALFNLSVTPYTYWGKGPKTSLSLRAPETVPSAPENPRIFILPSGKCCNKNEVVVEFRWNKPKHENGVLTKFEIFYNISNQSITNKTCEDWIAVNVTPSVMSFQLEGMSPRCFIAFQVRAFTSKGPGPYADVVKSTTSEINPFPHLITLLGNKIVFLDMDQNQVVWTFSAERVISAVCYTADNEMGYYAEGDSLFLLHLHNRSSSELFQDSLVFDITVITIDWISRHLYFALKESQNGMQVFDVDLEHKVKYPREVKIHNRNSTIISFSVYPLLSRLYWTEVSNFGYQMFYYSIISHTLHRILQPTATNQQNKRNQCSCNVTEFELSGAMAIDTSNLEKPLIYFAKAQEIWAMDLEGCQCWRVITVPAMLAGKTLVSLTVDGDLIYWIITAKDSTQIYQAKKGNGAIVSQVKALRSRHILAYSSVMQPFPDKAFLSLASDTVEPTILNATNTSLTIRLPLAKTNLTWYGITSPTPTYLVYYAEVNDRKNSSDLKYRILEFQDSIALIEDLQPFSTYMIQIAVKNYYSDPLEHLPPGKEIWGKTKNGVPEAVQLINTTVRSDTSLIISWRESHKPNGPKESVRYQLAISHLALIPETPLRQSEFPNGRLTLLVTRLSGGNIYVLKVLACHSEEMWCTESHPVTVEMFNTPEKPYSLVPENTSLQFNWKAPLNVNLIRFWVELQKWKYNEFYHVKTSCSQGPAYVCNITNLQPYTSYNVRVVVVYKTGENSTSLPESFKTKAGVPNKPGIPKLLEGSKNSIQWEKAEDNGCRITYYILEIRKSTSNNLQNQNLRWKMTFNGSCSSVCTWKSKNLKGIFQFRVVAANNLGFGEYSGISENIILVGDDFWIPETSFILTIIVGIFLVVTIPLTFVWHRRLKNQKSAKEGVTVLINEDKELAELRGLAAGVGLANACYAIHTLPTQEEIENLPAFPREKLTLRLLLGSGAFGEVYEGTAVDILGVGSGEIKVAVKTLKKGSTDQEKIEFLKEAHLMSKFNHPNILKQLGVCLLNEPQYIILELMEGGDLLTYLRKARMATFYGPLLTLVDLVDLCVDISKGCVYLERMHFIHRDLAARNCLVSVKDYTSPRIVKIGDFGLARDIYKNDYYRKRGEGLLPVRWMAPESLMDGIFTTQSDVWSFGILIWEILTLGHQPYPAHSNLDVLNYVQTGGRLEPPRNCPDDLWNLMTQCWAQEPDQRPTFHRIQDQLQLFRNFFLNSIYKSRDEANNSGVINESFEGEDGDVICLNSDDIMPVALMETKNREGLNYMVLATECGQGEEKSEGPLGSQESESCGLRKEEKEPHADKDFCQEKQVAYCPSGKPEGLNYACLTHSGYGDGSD

IC50 (ROS1 [1]) [nM] | IC50 (ROS1 [2]) [nM] | IC50 [3] [nM] | Compound
< 20 | < 1 | 20 to 100 | CC(Oc1ccc2ncc(-c3ccc(N4C[C@@H](N)CC4=O)cc3)n2n1)c1cc(F)ccc1-n1nccn1 (stereo partly drawn) [Example 114, (4S)-4-Amino-1-[4-[6-[1-[5-fluoro-2-(triazol-2-yl)phenyl]ethoxy]imidazo[1,2-b]pyridazin-3-yl]phenyl]pyrrolidin-2-one]
20 to 100 | 1 to 10 | 100 to 600 | CN(Cc1cccc(F)c1)c1ccc2ncc(-c3ccc(OC[C@@H]4CCCN4)cc3)n2n1 [Example 10, N-[(3-Fluorophenyl)methyl]-N-methyl-3-[4-[[(2S)-pyrrolidin-2-yl]methoxy]phenyl]imidazo[1,2-b]pyridazin-6-amine]
< 20 | < 1 | < 20 | C[C@@H](Nc1ccc2ncc(-c3ccc(OC[C@@H](N)[C@@H](C)O)cc3)n2n1)c1cccc(F)c1 [Example 54, (2R,3R)-3-Amino-4-[4-[6-[[(1R)-1-(3-fluorophenyl)ethyl]amino]imidazo[1,2-b]pyridazin-3-yl]phenoxy]butan-2-ol]
< 20 | < 1 | 20 to 100 | CN(Cc1cccc(F)c1)c1ccc2ncc(-c3ccc(N4C[C@@H](N)CC4=O)nc3)n2n1 [Example 128, (4S)-4-Amino-1-[5-[6-[(3-fluorophenyl)methyl-methylamino]imidazo[1,2-b]pyridazin-3-yl]-2-pyridyl]pyrrolidin-2-one]
< 20 | < 1 | < 20 | C[C@@H](N)COc1ccc(-c2cnc3ccc(N[C@H](C)c4cccc(F)c4)nn23)cn1 [Example 53, 3-[6-[(2R)-2-Aminopropoxy]-3-pyridyl]-N-[(1R)-1-(3-fluorophenyl)ethyl]imidazo[1,2-b]pyridazin-6-amine]
20 to 100 | 1 to 10 | 20 to 100 | CN(Cc1cccc(F)c1)c1ccc2ncc(-c3ccc(N4C[C@@H](N)CC4=O)c(F)c3)n2n1 [Example 83, (4S)-4-Amino-1-[2-fluoro-4-[6-[(3-fluorophenyl)methyl-methylamino]imidazo[1,2-b]pyridazin-3-yl]phenyl]pyrrolidin-2-one]
100 to 150 | 10 to 60 | 100 to 600 | CC(Oc1ccc2ncc(-c3ccc(N4C[C@@H](N)CC4=O)cc3)n2n1)c1cn(C(F)F)nn1 (stereo partly drawn) [Example 115, (4S)-4-Amino-1-[4-[6-[1-[1-(difluoromethyl)triazol-4-yl]ethoxy]imidazo[1,2-b]pyridazin-3-yl]phenyl]pyrrolidin-2-one]
20 to 100 | 1 to 10 | 100 to 600 | CN(Cc1ccccc1)c1ccc2ncc(-c3ccc(N4C[C@@H](N)CC4=O)cc3)n2n1 [Example 94, (4S)-4-Amino-1-[4-[6-[benzyl(methyl)amino]imidazo[1,2-b]pyridazin-3-yl]phenyl]pyrrolidin-2-one]
< 20 | < 1 | < 20 | C[C@@H](Nc1ccc2ncc(-c3ccc(N4C[C@@H](N)CC4=O)c(F)c3)n2n1)c1cccc(F)c1 [Example 92, (4S)-4-Amino-1-[2-fluoro-4-[6-[[(1R)-1-(3-fluorophenyl)ethyl]amino]imidazo[1,2-b]pyridazin-3-yl]phenyl]pyrrolidin-2-one]
20 to 100 | 10 to 60 | 100 to 600 | CN(Cc1cncc(F)c1)c1ccc2ncc(-c3ccc(N4C[C@@H](N)CC4=O)c(C#N)c3)n2n1 [Example 130]
20 to 100 | 1 to 10 | 100 to 600 | NCCOc1ccc(-c2cnc3ccc(OCc4cccc(F)c4)nn23)cc1 [Example 14, 2-[4-[6-[(3-Fluorophenyl)methoxy]imidazo[1,2-b]pyridazin-3-yl]phenoxy]ethanamine]
< 20 | < 1 | < 20 | CN(Cc1cc(F)cc(F)c1)c1ccc2ncc(-c3ccc(N4C[C@@H](N)CC4=O)cc3)n2n1 [Example 120, (4S)-4-Amino-1-[4-[6-[(3,5-difluorophenyl)methyl-methylamino]imidazo[1,2-b]pyridazin-3-yl]phenyl]pyrrolidin-2-one]
< 20 | < 1 | 20 to 100 | C[C@@H](Nc1ccc2ncc(-c3ccc(OCCCN)cc3)n2n1)c1cccc(F)c1 [Example 28, 3-[4-(3-Aminopropoxy)phenyl]-N-[(1R)-1-(3-fluorophenyl)ethyl]imidazo[1,2-b]pyridazin-6-amine]
20 to 100 | 1 to 10 | 100 to 600 | NC1CCN(c2ccc(-c3cnc4ccc(OCc5cccc(F)c5)nn34)cc2)C1=O (stereo not drawn) [Example 75, 3-Amino-1-[4-[6-[(3-fluorophenyl)methoxy]imidazo[1,2-b]pyridazin-3-yl]phenyl]pyrrolidin-2-one]
< 20 | 1 to 10 | 20 to 100 | C[C@@H](Nc1ccc2ncc(-c3cccc(N4C[C@@H](N)CC4=O)c3)n2n1)c1cccc(F)c1 [Example 91, (4S)-4-Amino-1-[3-[6-[[(1R)-1-(3-fluorophenyl)ethyl]amino]imidazo[1,2-b]pyridazin-3-yl]phenyl]pyrrolidin-2-one]
< 20 | < 1 | < 20 | C[C@@H](Nc1ccc2ncc(-c3ccc(OCC(N)CO)cc3)n2n1)c1cccc(F)c1 (stereo partly drawn) [Example 45, 2-Amino-3-[4-[6-[[(1R)-1-(3-fluorophenyl)ethyl]amino]imidazo[1,2-b]pyridazin-3-yl]phenoxy]propan-1-ol]
< 20 | 1 to 10 | 20 to 100 | C[C@@H](Nc1ccc2ncc(-c3cccc(OCCN)c3)n2n1)c1cccc(F)c1 [Example 67, 3-[3-(2-Aminoethoxy)phenyl]-N-[(1R)-1-(3-fluorophenyl)ethyl]imidazo[1,2-b]pyridazin-6-amine]
< 20 | < 1 | 20 to 100 | CC(Oc1ccc2ncc(-c3ccc(N4C[C@@H](N)CC4=O)cc3)n2n1)c1cc(F)ccc1F (stereo partly drawn) [Example 104, (4S)-4-Amino-1-[4-[6-[1-(2,5-difluorophenyl)ethoxy]imidazo[1,2-b]pyridazin-3-yl]phenyl]pyrrolidin-2-one]
< 20 | < 1 | 100 to 600 | C[C@@H](Nc1ccc2ncc(-c3ccc(OC[C@@H]4CCNC4)cc3)n2n1)c1cccc(F)c1 [Example 23, N-[(1R)-1-(3-Fluorophenyl)ethyl]-3-[4-[[(3R)-pyrrolidin-3-yl]methoxy]phenyl]imidazo[1,2-b]pyridazin-6-amine]
20 to 100 | 1 to 10 | 100 to 600 | N#Cc1cccc(COc2ccc3ncc(-c4ccc(N5C[C@@H](N)CC5=O)cc4)n3n2)c1 [Example 101, 3-[[3-[4-[(4S)-4-Amino-2-oxopyrrolidin-1-yl]phenyl]imidazo[1,2-b]pyridazin-6-yl]oxymethyl]benzonitrile]
20 to 100 | 1 to 10 | 20 to 100 | CN[C@H]1CC(=O)N(c2ccc(-c3cnc4ccc(O[C@H](C)c5cncc(F)c5)nn34)cc2)C1 [Example 108, (4S)-1-[4-[6-[(1R)-1-(5-Fluoro-3-pyridyl)ethoxy]imidazo[1,2-b]pyridazin-3-yl]phenyl]-4-(methylamino)pyrrolidin-2-one]
< 20 | < 1 | < 20 | C[C@@H](Nc1ccc2ncc(-c3ccc(N4C[C@@H](N)CC4=O)cc3F)n2n1)c1cccc(F)c1 [Example 93, (4S)-4-Amino-1-[3-fluoro-4-[6-[[(1R)-1-(3-fluorophenyl)ethyl]amino]imidazo[1,2-b]pyridazin-3-yl]phenyl]pyrrolidin-2-one]
100 to 150 | 10 to 60 | 20 to 100 | CN(Cc1cncc(Cl)c1)c1ccc2ncc(-c3ccc(N4CC(C)(N)CC4=O)cc3)n2n1 (stereo not drawn) [Example 123, 4-Amino-1-[4-[6-[(5-chloro-3-pyridyl)methyl-methylamino]imidazo[1,2-b]pyridazin-3-yl]phenyl]-4-methylpyrrolidin-2-one]

Compound | IC50 (ROS1 [1]) [nM] | IC50 (ROS1 [2]) [nM] | IC50 [3] [nM]
C[C@@H](Nc1ccc2ncc(-c3ccc(O[C@@H]4CCC[C@@H]4N)cc3)n2n1)c1cccc(F)c1 [Example 36, 3-[4-[(1R,2S)-2-Aminocyclopentoxy]phenyl]-N-[(1R)-1-(3-fluorophenyl)ethyl]imidazo[1,2-b]pyridazin-6-amine] | < 20 | < 1 | 100 to 600
